{"source": "patent US20190300573A1", "about": "“HUMAN MYOSIN PEPTIDES” (APITOPE INTERNATIONAL NV, priority 2016, published 2019)", "key": {"[1]": {"system": "α-myosin sensitized splenic cells", "experiment": "Testing the antigenicity of T cell epitopes (stimulation index, 3H-thymidine incorporation)", "format": "cell-based, DR4 mice", "details": "for stimulation index: 3H-thymidine incorporation, peptides 30, 3 and 0.3 μg/ml, screening repeated three times, FIG. 8; for stimulation at the lowest concentration: 0.3 μg/ml", "experimental": "The antigenicity of predicted peptides was assessed T cell proliferation against human cardiac myosin was measured by comparison of their stimulation index determined by 3H-thymidine incorporation assay (in brief: cells were pulsed with ^3H-Thymidine for 18 hours at the same conditions by adding 25 μl of diluted ^3H-Tymidine solution in RPMI to each well (final concentration 0.5 μCi/well). Finally, the cells were kept at −20 C.° at least overnight until ready to harvest. After thawing the plates, the cells were harvested onto glass fibre filters (Cox Scientific) using a Combo Cell Harvester (Skatron). Then the filters were soaked in Betaplate Scint liquid scintillation cocktail (Perkin Elmer) and sealed into sample bags (Perkin Elmer). Finally, the sealed bags containing the filters were placed into cassettes and the amount of scintillation was read using 1450 Microbeta Liquid Scintillation Counter (Perkin Elmer) in order to determine the level of ^3H-tymidine incorporation.). The α-myosin sensitized splenic cells were challenged with each peptide (GenScript (USA), peptide concentrations were 30, 3 and 0.3 μg/ml) or whole myosin (30 μg/ml)."}, "[2]": {"system": "circulating anti-myosin antibodies", "experiment": "ELISA of circulating anti-myosin antibody levels in EAM DR4 mice", "format": "in vivo", "details": "EAM induction, n=5", "experimental": "(§1) Appropriate amount of myosin extract was diluted to the desired volume with PBS, then mixed with equal volume of complete Freund's adjuvant (CFA; Difco) containing 8 mg/ml of heat-killed Mycobacterium Tuberculosis (hkMTB; Difco). The mixture was sonicated for 20 min, then mixed well by a 1 ml syringe until the emulsion became very thick and viscous. 100 μl of the emulsion was applied subcutaneously from tail base at a dose of 100 μg myosin/mouse. On day 0 and 2, 200 ng Pertussis toxin (Sigma Aldrich) in 0.5 ml of PBS was intraperitoneally injected to each mouse as a second adjuvant. In the first trial, the myosin and Pertussis toxin injections were repeated after a week. However, this second set of injections was excluded in later experiments to avoid induction of a too severe disease that might obscure any benefit of the peptide therapy. Control groups received PBS in hkMTB-boosted CFA (but without human cardiac myosin) as well as Pertussis toxin. The development of EAM was assessed by echocardiographic and histopathological measurements after 3 weeks from myosin injection. […]\nAfter incubation with the alkaline phosphatase-conjugated antibodies, once again the plates were washed four times with PBST. […] Once the colour developed, the reaction was stopped by adding 50 μL of 2M NaOH (Sigma, UK) and the absorbance was measured using LT-5000MS ELISA Reader (Labtech) at a wavelength of 405 nm. […]"}, "[3]": {"system": "cardiac myosin responsive T cell proliferation", "experiment": "Anti-myosin T cell proliferation of splenocytes from EAM DR4 mice", "format": "in vivo", "details": "EAM induction, FIG. 3", "experimental": "as §1, with “However, this second set of injections was excluded in later experiments to avoid induction of a too severe disease that might obscure any benefit of the peptide therapy. Control groups received PBS in hkMTB-boosted CFA (but without human cardiac myosin) as well as Pertussis toxin.” left out\nThe splenocytes obtained from myosin immunised mice (as described herein) were cultured in 96 well plates in X-Vivo 15 media (Lonza) at a concentration of 5×10^5 cells/well. […] Finally, the cells were kept at −20 C.° at least overnight until ready to harvest. […]\n(§2) 2 different combinations of peptides were used for the therapy. […] Mice were terminated 3 weeks after the myosin injection and disease development and adaptive immune responses against cardiac myosin were assessed."}, "EAM induced DR4 mice [4]": {"system": "EAM induced DR4 mice", "experiment": "Histopathological analysis of myocarditis (H&E inflammatory cell infiltrate)", "format": "in vivo", "details": "EAM induction, p=0.0079, Fisher's exact test", "experimental": "(§3) Appropriate amount of myosin extract was diluted to the desired volume with PBS, then mixed with equal volume of complete Freund's adjuvant (CFA; Difco) containing 8 mg/ml of heat-killed Mycobacterium Tuberculosis (hkMTB; Difco). The mixture was sonicated for 20 min, then mixed well by a 1 ml syringe until the emulsion became very thick and viscous. 100 μl of the emulsion was applied subcutaneously from tail base at a dose of 100 μg myosin/mouse. On day 0 and 2, 200 ng Pertussis toxin (Sigma Aldrich) in 0.5 ml of PBS was intraperitoneally injected to each mouse as a second adjuvant. In the first trial, the myosin and Pertussis toxin injections were repeated after a week. However, this second set of injections was excluded in later experiments to avoid induction of a too severe disease that might obscure any benefit of the peptide therapy. Control groups received PBS in hkMTB-boosted CFA (but without human cardiac myosin) as well as Pertussis toxin. The development of EAM was assessed by echocardiographic and histopathological measurements after 3 weeks from myosin injection. Spleens were collected to measure cardiac myosin responsive T cell proliferation. Bloods were collected to measure circulating anti-myosin antibody levels.\nThe heart was dissected and fixed for 24 hours in 10% (v/v) formalin in PBS for histological analyses. […]"}, "EAM induced DR4 mice [5]": {"system": "EAM induced DR4 mice", "experiment": "Echocardiographic analysis of left ventricle function in EAM DR4 mice", "format": "in vivo", "details": "n=5", "experimental": "as §3\nAt the end of the 3 week experiment, the mice were anesthetised by intraperitoneal injection of Tribromoethanol (Avertin; SigmaAldrich) at a dose of 250 mg/kg. The left ventricle functions and diameters were analysed using Vevo 770 high-frequency, high-resolution echocardiography system (Visual Sonics) just before terminating the mice. The anesthetised mice were laid supine and butted to a heated platform by surgical tape stripes. Chest hair were removed by applying hair removal cream and Aquasonic Clear ultrasound transmission gel (Parker Laboratories) was applied to the hairless chest. […]\nas §2"}, "DR4 mice": {"system": "DR4 mice", "format": "in vivo", "details": "first trial, myosin and Pertussis toxin injections repeated after a week; after 3 weeks", "experimental": "as §1, with “However, this second set of injections was excluded in later experiments to avoid induction of a too severe disease that might obscure any benefit of the peptide therapy. Control groups received PBS in hkMTB-boosted CFA (but without human cardiac myosin) as well as Pertussis toxin.” left out\nIn our first trial, it was planned to follow disease progression using echocardiography at 3 and 6 weeks. However, sudden death occurred in 3 out of 5 mice in the α-myosin treated group after 3 weeks, whereas the animals in the control group were all healthy and no signs of myocarditis were detected in their hearts by echocardiographic measurements (data not shown). […]\nBody weights of the mice were measured before the induction of EAM and at termination. […]"}}}
{"substance": "VNPYKWLPVYNAEVV (T cell epitope peptide)", "values": [{"measurement": "stimulation index", "setting": "[1]", "value": "stronger stimulation than the rest of them"}]}
{"substance": "YHIFYQILSNKKPEL (T cell epitope peptide) [YL]", "values": [{"measurement": "stimulation index", "setting": "[1]", "value": "consistently the strongest stimulation amongst the peptides"}, {"measurement": "stimulation at the lowest concentration", "setting": "[1]; second screening assay", "value": "provided stimulation even at the lowest concentration"}]}
{"substance": "Whole myosin: myosin extracted from human heart left ventricular wall; immunogen for EAM induction and stimulus in proliferation assays", "values": [{"measurement": "circulating anti-myosin IgG1 levels", "setting": "[2]; pmax=0.0008, FIG. 4A", "value": "increased significantly"}, {"measurement": "circulating anti-myosin IgG2c levels", "setting": "[2]; pmax=0.02, FIG. 4B", "value": "significantly increased"}, {"measurement": "increase in T cell proliferation against cardiac myosin", "setting": "[3]; 100 μg myosin in CFA + Pertussis toxin, vs control group with CFA and Pertussis toxin only", "value": "5-6 fold"}, {"measurement": "anti-myosin T cell proliferation", "setting": "[3]; myosin 0.2, 2.0, 20 μg/ml in culture, n=5", "value": "increased"}, {"measurement": "stimulation", "setting": "[1]; second screening assay", "value": 2, "unit": "fold"}, {"measurement": "mice with inflammation and tissue damage in the heart", "setting": "EAM induced DR4 mice [4]", "value": "5 out of 5"}, {"measurement": "percentage of ejection fraction", "setting": "EAM induced DR4 mice [5]; EAM induction vs control with only CFA and Pertussis toxin, p=0.003", "value": "significant decrease"}, {"measurement": "fractional shortening", "setting": "EAM induced DR4 mice [5]; EAM induction vs control with only CFA and Pertussis toxin, p=0.006", "value": "significant decrease"}, {"measurement": "left ventricle systolic dimension", "setting": "EAM induced DR4 mice [5]; EAM induction, p=0.039, FIG. 6B", "value": "significant increase"}, {"measurement": "sudden death", "setting": "DR4 mice", "value": "3 out of 5"}]}
{"substance": "PHIFSISDNAYQYML (T cell epitope peptide) [PL]", "values": [{"measurement": "stimulation index", "setting": "[1]", "value": "stronger stimulation than the rest of them"}, {"measurement": "stimulation at the lowest concentration", "setting": "[1]; second screening assay", "value": "provided stimulation even at the lowest concentration"}]}
